Source: patent US11623919B2, “Heterocyclic P2X7 antagonists” (AXXAM S.P.A., priority 2017, dated 2023)

Columns and labels:
Assay in all cases: Screen Quest Fluo-8 No Wash Calcium Assay (Bz-ATP evoked Ca2+ influx, FLIPR)
Type in all cases: cell-based
P2X7 receptor [1] = target: T1, P2X7 receptor (Mus musculus, UniProt Q9Z1M0); conditions: mP2X7; HEK-293 cells stably transfected with P2X7 receptor, Bz-ATP at EC80, Fluo-8 NW; potency ranges A-D
T1 construct: mP2X7 (IC50; nM); other: mP2X7; HEK-293 cells stably transfected with P2X7 receptor, Bz-ATP at EC80, Fluo-8 NW; potency
T1 sequence (Q9Z1M0 1-595): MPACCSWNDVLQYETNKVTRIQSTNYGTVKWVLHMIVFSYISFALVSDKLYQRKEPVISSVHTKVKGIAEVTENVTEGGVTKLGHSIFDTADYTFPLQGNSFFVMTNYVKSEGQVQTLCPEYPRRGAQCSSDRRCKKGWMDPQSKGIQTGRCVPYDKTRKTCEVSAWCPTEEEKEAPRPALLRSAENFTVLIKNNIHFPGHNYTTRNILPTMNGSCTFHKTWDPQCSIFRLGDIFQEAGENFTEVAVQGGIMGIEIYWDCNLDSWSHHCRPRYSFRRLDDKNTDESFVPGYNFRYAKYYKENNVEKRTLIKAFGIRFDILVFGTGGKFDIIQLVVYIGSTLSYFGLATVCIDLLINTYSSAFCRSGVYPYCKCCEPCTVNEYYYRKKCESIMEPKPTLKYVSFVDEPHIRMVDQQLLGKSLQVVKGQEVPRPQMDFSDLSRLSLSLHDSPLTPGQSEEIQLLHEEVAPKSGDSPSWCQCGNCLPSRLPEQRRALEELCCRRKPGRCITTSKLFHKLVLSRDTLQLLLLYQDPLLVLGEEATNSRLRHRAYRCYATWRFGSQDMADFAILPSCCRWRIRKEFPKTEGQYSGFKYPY
Method: (§1) Extracellular binding of Bz-ATP to P2X7 receptor opens the channel and allows Ca2+ influx into the cells. […] Once inside the cell, the lipophilic blocking groups of Fluo-8 are cleaved by non-specific cell esterases, resulting in a negatively-charged fluorescent dye that stays inside cells. Its fluorescence increases upon binding to calcium.
(§2) HEK-293 cells stably transfected with P2X7 receptor were seeded overnight in growth medium at 10,000 to 20,000 cell/well in 384-well plate. 24 hours later, the medium was removed and the cells were pre-loaded at RT for 1 hour with 20 μL/w of Fluo-8 NW. Then 10 μL/w of tests compounds and reference antagonist A438079 at 3×-concentration were injected with the […] and the kinetic response over a period of five minutes was monitored. A second injection of 15 μL/w of 3× reference activator (Bz-ATP at EC80) was performed with the […] and the signal of the emitted fluorescence was recorded for additional three minutes. All the experiment was carried out in a Low Divalent Cation Assay Buffer (0.3 mM Ca^2+ and 0 mM Mg^2+). The effect of the test compounds was measured as percent inhibition vs the reference antagonist and IC50 values were calculated accordingly.

P2X7 receptor [2] = target: T2, P2X7 receptor (Rattus norvegicus, UniProt Q64663); conditions: rP2X7; HEK-293 cells stably transfected with P2X7 receptor, Bz-ATP at EC80, Fluo-8 NW; potency ranges A-D
T2 construct: rP2X7 (IC50; nM); other: rP2X7; HEK-293 cells stably transfected with P2X7 receptor, Bz-ATP at EC80, Fluo-8 NW; potency
T2 sequence (Q64663 1-595): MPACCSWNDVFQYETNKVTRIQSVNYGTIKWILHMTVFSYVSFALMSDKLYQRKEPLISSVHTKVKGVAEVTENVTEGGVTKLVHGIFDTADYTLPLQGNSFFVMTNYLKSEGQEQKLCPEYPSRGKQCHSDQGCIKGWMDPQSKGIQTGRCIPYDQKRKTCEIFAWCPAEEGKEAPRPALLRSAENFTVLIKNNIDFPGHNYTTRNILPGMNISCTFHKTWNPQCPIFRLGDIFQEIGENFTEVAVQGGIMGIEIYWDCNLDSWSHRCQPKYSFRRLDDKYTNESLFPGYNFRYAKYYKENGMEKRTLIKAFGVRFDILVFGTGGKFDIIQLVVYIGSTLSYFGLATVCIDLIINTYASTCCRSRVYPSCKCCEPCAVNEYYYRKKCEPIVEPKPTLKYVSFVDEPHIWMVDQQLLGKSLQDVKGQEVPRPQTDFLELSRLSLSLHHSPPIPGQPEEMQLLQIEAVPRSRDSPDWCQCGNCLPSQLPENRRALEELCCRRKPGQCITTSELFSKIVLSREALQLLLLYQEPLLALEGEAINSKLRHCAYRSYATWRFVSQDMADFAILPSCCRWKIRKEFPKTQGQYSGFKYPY
Method: as §1, §2

P2X7 receptor [3] = target: T3, P2X7 receptor (Homo sapiens, UniProt Q99572); parameters: hP2X7 (IC50; nM); other: hP2X7; HEK-293 cells stably transfected with P2X7 receptor, Bz-ATP at EC80, Fluo-8 NW; potency; conditions: hP2X7; HEK-293 cells stably transfected with P2X7 receptor, Bz-ATP at EC80, Fluo-8 NW; potency ranges A-D
T3 sequence (Q99572 1-595): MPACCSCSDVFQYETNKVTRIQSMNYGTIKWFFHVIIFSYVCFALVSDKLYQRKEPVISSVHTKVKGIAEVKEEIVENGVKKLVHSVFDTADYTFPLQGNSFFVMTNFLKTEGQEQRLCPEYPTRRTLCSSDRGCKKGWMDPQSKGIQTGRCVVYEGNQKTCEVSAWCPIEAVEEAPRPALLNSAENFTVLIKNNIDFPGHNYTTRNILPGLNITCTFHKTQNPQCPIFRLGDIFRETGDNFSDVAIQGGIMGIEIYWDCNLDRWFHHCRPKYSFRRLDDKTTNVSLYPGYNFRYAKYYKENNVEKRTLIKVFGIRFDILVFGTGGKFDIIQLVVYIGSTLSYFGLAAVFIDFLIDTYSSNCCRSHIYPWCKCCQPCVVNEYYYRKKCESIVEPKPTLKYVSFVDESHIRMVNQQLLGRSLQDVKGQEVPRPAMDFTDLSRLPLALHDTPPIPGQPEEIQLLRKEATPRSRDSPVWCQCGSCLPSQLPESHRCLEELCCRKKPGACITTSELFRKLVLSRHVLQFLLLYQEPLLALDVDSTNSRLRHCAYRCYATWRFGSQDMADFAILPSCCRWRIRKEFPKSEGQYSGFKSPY
Method: as §1, §2

SMILES | IC50 (P2X7 receptor [1]) [nM] | IC50 (P2X7 receptor [2]) [nM] | IC50 (P2X7 receptor [3]) [nM]
O=c1onc(Cc2c(F)cccc2Cl)n1CC1CC1 [Example 83, 3-[(2-chloro-6-fluorophenyl)methyl]-4-(cyclopropylmethyl)-4,5-dihydro-1,2,4-oxadiazol-5-one] | > 10000 | > 10000 | > 10000
O=c1onc(Cc2ccc(F)cc2Cl)n1CC1CCC(F)(F)CC1 [Example 162, 3-[(2-chloro-4-fluorophenyl)methyl]-4-[(4,4-difluorocyclohexyl)methyl]-4,5-dihydro-1,2,4-oxadiazol-5-one] | > 10000 | > 10000 | > 10000
O=c1onc(C(O)c2cccc(C(F)(F)F)c2Cl)n1Cc1ccccc1 (stereo not drawn) [Example 136, 4-benzyl-3-{[2-chloro-3-(trifluoromethyl)phenyl](hydroxy)methyl}-4,5-dihydro-1,2,4-oxadiazol-5-one] | > 10000 | > 10000 | 1000 to 10000
O=c1onc(CC2CCCCC2)n1CC1CCCCC1 [Example 129, bis(cyclohexylmethyl)-4,5-dihydro-1,2,4-oxadiazol-5-one] | 1000 to 10000 | 1000 to 10000 | > 10000
O=c1onc(CC2CCC(F)(F)CC2)n1Cc1ccc(C(F)(F)F)cc1 [Example 166, 3-[(4,4-difluorocyclohexyl)methyl]-4-{[4-(trifluoromethyl)phenyl]methyl}-4,5-dihydro-1,2,4-oxadiazol-5-one] | 1000 to 10000 | 1000 to 10000 | 1000 to 10000
CCCOCn1c(Cc2c(F)cccc2Cl)noc1=O [Example 102, 3-[(2-chloro-6-fluorophenyl)methyl]-4-(propoxymethyl)-4,5-dihydro-1,2,4-oxadiazol-5-one] | > 10000 | 1000 to 10000 | 1000 to 10000
O=c1onc(Cc2ccc(F)cc2)n1Cc1ccc(F)cc1F [Example 53, 4-[(2,4-difluorophenyl)methyl]-3-[(4-fluorophenyl)methyl]-4,5-dihydro-1,2,4-oxadiazol-5-one] | > 10000 | 200 to 1000 | > 10000
O=c1onc(Cc2ccc(F)cc2)n1CC1CCC(F)(F)CC1 [Example 152, 4-[(4,4-difluorocyclohexyl)methyl]-3-[(4-fluorophenyl)methyl]-4,5-dihydro-1,2,4-oxadiazol-5-one] | 1000 to 10000 | 200 to 1000 | 200 to 1000
Cc1ccccc1Cn1c(Cc2c(F)cccc2Cl)noc1=O [Example 27, 3-[(2-chloro-6-fluorophenyl)methyl]-4-[(2-methylphenyl)methyl]-4,5-dihydro-1,2,4-oxadiazol-5-one] | 1000 to 10000 | 1000 to 10000 | 1000 to 10000
O=c1onc(CN2CCOc3ccccc32)n1CC1CCCCC1 [Example 230, 4-(cyclohexylmethyl)-3-(3,4-dihydro-2H-1,4-benzoxazin-4-ylmethyl)-4,5-dihydro-1,2,4-oxadiazol-5-one] | < 200 | < 200 | < 200
Cn1ccnc1Cn1c(Cc2c(F)cccc2Cl)noc1=O [Example 47, 3-[(2-chloro-6-fluorophenyl)methyl]-4-[(1-methyl-1H-imidazol-2-yl)methyl]-4,5-dihydro-1,2,4-oxadiazol-5-one] | > 10000 | > 10000 | > 10000
CC(c1ccc(F)cc1)n1c(CC2CCC(F)(F)CC2)noc1=O (stereo not drawn) [Example 164, 3-[(4,4-difluorocyclohexyl)methyl]-4-[1-(4-fluorophenyl)ethyl]-4,5-dihydro-1,2,4-oxadiazol-5-one] | 1000 to 10000 | 1000 to 10000 | 1000 to 10000
COc1ccc(Cn2c(Cc3ccc(F)cc3)noc2=O)c(OC)c1 [Example 2, 4-[(2,4-dimethoxyphenyl)methyl]-3-[(4-fluorophenyl)methyl]-4,5-dihydro-1,2,4-oxadiazol-5-one] | > 10000 | > 10000 | 1000 to 10000
O=c1onc(Cc2ccc(F)cc2)n1Cc1ccc(Cl)cc1Cl [Example 9, 4-[(2,4-dichlorophenyl)methyl]-3-[(4-fluorophenyl)methyl]-4,5-dihydro-1,2,4-oxadiazol-5-one] | > 10000 | 1000 to 10000 | 200 to 1000
